Values belong to the substance of their own block, whether it stands above or below them.
Experiments:
PP1c/PP2Ac = assay: PP1c versus PP2Ac specificity of p-sites (pairwise comparison / hierarchical clustering of phosphoproteomic data); type: biochemical, human; conditions: HeLa Kyoto lysate; for Sensitivity (phosphatase exclusively dephosphorylating the p-site): p-site significantly decreased exclusively by PP1c or PP2Ac, 1 µM phosphatase, 1 h, 30 °C
Procedure: For phosphoproteomics, HeLa Kyoto cells were incubated with 20 nM Calyculin A (CST, #9902) for 10–15 min. This time point was determined empirically to yield maximal phosphatase inhibition without cells showing pleiotropic effects. Subsequently, cells were placed on ice and washed twice with cold PBS and scraped in lysis buffer (100 mM NaCl, 10 mM Tris, 0.1% IGEPAL, 1 mM EDTA, 1 mM EGTA, 20 nM Calyculin A, 1x cOmplete Mini protease inhibitor cocktail (Sigma), 1 mM DTT, 1 mM MnCl2, pH 7.5). After 10 pushes through an injection needle (21 G, BD), lysate was cleared from the insoluble fraction by centrifugation (10 min, 10^4 rcf, 4 °C). Protein concentration was then determined by a Bradford Assay and equal amounts of 1 mg total protein were incubated with recombinant PP1c/PP2Ac or buffer at a final phosphatase concentration of 1 µM in a total volume of 200 µL for 1 h at 30 °C. Lysates were then immediately placed on ice. PhosStop […] (Roche) was added and proteins were denatured by adding urea to a final concentration of 8 M taking into account the volume increase. Samples were then snap-frozen in liquid nitrogen for storage and subsequent MS analysis.
Downstream analysis of the phosphoproteomic datasets was carried out using the software tool Perseus[66]. For analysis of phosphoproteomic experiments, row-wise, median-normalized data (see previous section) was linked to known regulatory sites by PhosphoSitePlus entries and categorical columns for treatments were assigned. Reverse peptides and potential contaminants were filtered. Next, categorical columns for biological functions and treatments were assigned. TMT reporter intensities were then transformed into log2. At this point, all data were then filtered for valid values in all three replicates of at least one condition. Next, the distribution of TMT reporter intensities was assessed visually by plotting count-based histogramms and in a multiscatter plot using the Pearson correlation as an estimate of reproducibility. Next, NA (=not available: missing) values were replaced by imputation from a normal distribution (width 0.3, down-shift 1.8, per column). The data quality was routinely assessed by two means: First, by plotting a histogram of peptide length vs. counts and visualization of imputed values to confirm a normal distribution of the data, and secondly by principal component analysis (default settings in Perseus) to judge the sample grouping.
For hierarchical clustering, the results of the one-way ANOVA were processed for two more steps in Perseus: first data were filtered for significant hits from the one-way ANOVA and then subjected to z-transformation. Hierarchical clustering images were produced using Euclidean distance, 300 clusters and 10 rounds of iteration.
Also all further data processing for protein enrichment and extraction of protein sequences in positions −5 to +5 relative to the p-sites of interest for subsequent motif analysis was performed using RStudio with R v3.3.2 using the packages tidyverse and BioStrings. In order to study the sequence specificity of PP1c and PP2Ac on the protein level, position specific probability matrices, representing the relative occurrence for each amino acid surrounding pSer/pThr were produced by extracting sequence information in positions −5 to +5 for all PP1c/PP2Ac-sensitive class I p-sites. Next, the count for each amino acid in each position was divided by the total of all counts for a certain position, resulting in relative abundance. […] Importantly, amino acids with less than 25 counts in PP1-sensitive/-insensitive or PP2A-sensitive/insensitive comparisons were excluded. For calculating a heat map directly comparing PP1c against PP2Ac, these fold changes were divided. […] Obtained p-values were adjusted for multiple testing using the method of Benjamini and Hochberg.
PP1c/PP2Ac-sensitive class I sites were divided into three classes as illustrated for PP1c in Supplementary Fig. 4c. […]

[1] = tested on: GFP-14-3-3β and its binding proteins; assay: GFP-14-3-3β co-IP with LC-MS/MS label-free quantification, untreated versus PP1c-treated; parameters: species or system human
GFP-14-3-3β = GFP-14-3-3β co-IP with LC-MS/MS, untreated GFP-14-3-3β versus GFP control (14-3-3 interactome); type: binding, human
[2] = pairwise comparison PP1 vs untreated
[3] = pairwise comparison untreated vs GFP
[4] = GFP-14-3-3β co-IP LC-MS/MS, PP1 vs untreated, student's t-test, label-free quantification, 3 replicates each
[5] = GFP-14-3-3β co-IP LC-MS/MS, untreated vs GFP, student's t-test, label-free quantification, 3 replicates each
[6] = pairwise comparison PP1 vs untreated, student's t-test, 3 replicates each, LC-MS/MS label-free quantification
[7] = pairwise comparison untreated GFP-14-3-3β vs GFP, student's t-test, 3 replicates each, LC-MS/MS label-free quantification
[8] = PP1 vs untreated, LFQ intensities, 3 replicates each
[9] = untreated vs GFP, LFQ intensities, 3 replicates each
[10] = PP1 vs untreated, LFQ intensities, replicates 1-3
[11] = untreated vs GFP, LFQ intensities, replicates 1-3

Sensitivity (phosphatase exclusively dephosphorylating the p-site) (PP1c/PP2Ac): PP1c
Substance: EVPVPPPVPPRRRPESAPAESSPSKIMSKHL [SOS1 1161]

Sensitivity (phosphatase exclusively dephosphorylating the p-site) (PP1c/PP2Ac): PP1c
Substance: HPPRKISTEDINKRLSLPADIRLPEGYLEKL [CDK16 119]

Sensitivity (phosphatase exclusively dephosphorylating the p-site) (PP1c/PP2Ac): PP2Ac
Substance: HSF1 303: 14-3-3 interaction site, window KEEPPSPPQSP

Sensitivity (phosphatase exclusively dephosphorylating the p-site) (PP1c/PP2Ac): PP2Ac
Substance: HSF1 307: 14-3-3 interaction site, window PSPPQSPRVEE

Sensitivity (phosphatase exclusively dephosphorylating the p-site) (PP1c/PP2Ac): PP1c
Substance: ISPTIVQQFGYQRRASDDGKLTDPSKTSNTI [RAF1 43]

Sensitivity (phosphatase exclusively dephosphorylating the p-site) (PP1c/PP2Ac): PP1c
Substance: KGDIKSKSRSRSQSRSNSPLPVPPSKARSVS [SRSF6 301]

Sensitivity (phosphatase exclusively dephosphorylating the p-site) (PP1c/PP2Ac): PP1c
Substance: KRKSKSRSRSKRPPKSPEEEGQMSS______ [SRSF8 273]

Sensitivity (phosphatase exclusively dephosphorylating the p-site) (PP1c/PP2Ac): PP1c
Substance: LHQCISRRAENARSASFSQGTRASFLMRSDT [GAB2 210]
GAB2 pS210 dephosphorylation in phosphoproteomic assay (PP1c/PP2Ac; 1 µM PP1c or PP2Ac): dephosphorylated by PP1c but not PP2Ac

Sensitivity (phosphatase exclusively dephosphorylating the p-site) (PP1c/PP2Ac): PP1c
Substance: NIFSRGANRMRGRLGSVDSFERSNSLASEKD [TBC1D4 588]

Sensitivity (phosphatase exclusively dephosphorylating the p-site) (PP1c/PP2Ac): PP1c
Substance: SPPPVSKRESKSRSRSKSPPKSPEEEGAVSS [SRSF2 206]

Sensitivity (phosphatase exclusively dephosphorylating the p-site) (PP1c/PP2Ac): PP1c
Substance: SRSF1 199: S/R-rich splicing factor p-site, window VDGPRSPSYGR

Sensitivity (phosphatase exclusively dephosphorylating the p-site) (PP1c/PP2Ac): PP1c
Substance: SRSF2 189: S/R-rich splicing factor p-site, window RSRSRSRSPPP

Sensitivity (phosphatase exclusively dephosphorylating the p-site) (PP1c/PP2Ac): PP1c
Substance: SRSF2 191: S/R-rich splicing factor p-site, window RSRSRSPPPVS

Sensitivity (phosphatase exclusively dephosphorylating the p-site) (PP1c/PP2Ac): PP2Ac
Substance: SRSF4/5/6 113;117;119: S/R-rich splicing factor p-site, window VENLSSRCSWQ

Sensitivity (phosphatase exclusively dephosphorylating the p-site) (PP1c/PP2Ac): PP1c
Substance: SRSF5 231: S/R-rich splicing factor p-site, window KSRSVSRSPVP

Sensitivity (phosphatase exclusively dephosphorylating the p-site) (PP1c/PP2Ac): PP1c
Substance: SRSF5 233: S/R-rich splicing factor p-site, window RSVSRSPVPEK

Sensitivity (phosphatase exclusively dephosphorylating the p-site) (PP1c/PP2Ac): PP1c
Substance: SRSF7 192: S/R-rich splicing factor p-site, window SRYFQSPSRSR

Sensitivity (phosphatase exclusively dephosphorylating the p-site) (PP1c/PP2Ac): PP1c
Substance: SRSF8 158: S/R-rich splicing factor p-site, window SRYSRSPYSRS

Sensitivity (phosphatase exclusively dephosphorylating the p-site) (PP1c/PP2Ac): PP1c
Substance: SRSF8 163: S/R-rich splicing factor p-site, window SPYSRSPYSRS

Sensitivity (phosphatase exclusively dephosphorylating the p-site) (PP1c/PP2Ac): PP1c
Substance: SRSF10 133: S/R-rich splicing factor p-site, window RSRSRSFDYNY

Sensitivity (phosphatase exclusively dephosphorylating the p-site) (PP1c/PP2Ac): PP2Ac
Substance: SRSF11 207: S/R-rich splicing factor p-site, window AAGLVSPSLKS

Difference (log2), PP1 vs untreated [1, 2]: 0.1738 log2
Substance: TRIM25
Difference (log2), untreated vs GFP (GFP-14-3-3β; [3]): -0.2184 log2

Difference (log2), PP1 vs untreated [1, 4]: -0.3516 log2
Substance: TRIM29
Difference (log2), untreated vs GFP (GFP-14-3-3β; [5]): 0.4899 log2

Difference (log2), PP1 vs untreated [1, 6]: -4.834 log2
Substance: TSC2
Difference (log2), untreated vs GFP (GFP-14-3-3β; [7]): 4.192 log2

Difference (log2), PP1 vs untreated [1, 8]: 0.3393 log2
Substance: TTC27
Difference (log2), untreated vs GFP (GFP-14-3-3β; [9]): 0.5169 log2

Difference (log2), PP1 vs untreated [1, 6]: -4.888 log2
Substance: TTC28
Difference (log2), untreated vs GFP (GFP-14-3-3β; [7]): 4.184 log2

Difference (log2), PP1 vs untreated [1, 2]: 0.07589 log2
Substance: TUBA1B
Difference (log2), untreated vs GFP (GFP-14-3-3β; [3]): -0.8319 log2

Difference (log2), PP1 vs untreated [1, 8]: 0.3784 log2
Substance: TUBA4A
Difference (log2), untreated vs GFP (GFP-14-3-3β; [9]): -0.9346 log2

Difference (log2), PP1 vs untreated [1, 4]: -0.1729 log2
Substance: TUBB
Difference (log2), untreated vs GFP (GFP-14-3-3β; [5]): -1.012 log2

Difference (log2), PP1 vs untreated [1, 4]: -0.5591 log2
Substance: TUBB4B
Difference (log2), untreated vs GFP (GFP-14-3-3β; [5]): -0.8458 log2

Sensitivity (phosphatase exclusively dephosphorylating the p-site) (PP1c/PP2Ac): PP1c
Substance: USP8 718: 14-3-3 interaction site, window LKRSYSSPDIT

Difference (log2), PP1 vs untreated [1, 8]: 0.4174 log2
Substance: USP10
Difference (log2), untreated vs GFP (GFP-14-3-3β; [9]): 1.017 log2

Difference (log2), PP1 vs untreated [1, 8]: 0.6266 log2
Substance: VDAC1
Difference (log2), untreated vs GFP (GFP-14-3-3β; [9]): 1.0866 log2

Difference (log2), PP1 vs untreated [1, 2]: 0.1241 log2
Substance: VIM
Difference (log2), untreated vs GFP (GFP-14-3-3β; [3]): 0.4109 log2

Difference (log2), PP1 vs untreated [1, 6]: -2.609 log2
Substance: VPS13D
Difference (log2), untreated vs GFP (GFP-14-3-3β; [7]): 3.223 log2

Difference (log2), PP1 vs untreated [1, 6]: -3.602 log2
Substance: WDR62
Difference (log2), untreated vs GFP (GFP-14-3-3β; [7]): 4.129 log2

Difference (log2), PP1 vs untreated [1, 6]: -3.748 log2
Substance: WWC1
Difference (log2), untreated vs GFP (GFP-14-3-3β; [7]): 3.436 log2

Difference (log2), PP1 vs untreated [1, 6]: -3.571 log2
Substance: WWC2
Difference (log2), untreated vs GFP (GFP-14-3-3β; [7]): 4.409 log2

Difference (log2), PP1 vs untreated [1, 6]: -4.48 log2
Substance: WWTR1
Difference (log2), untreated vs GFP (GFP-14-3-3β; [7]): 5.399 log2

Difference (log2), PP1 vs untreated [1, 2]: 0.08186 log2
Substance: XRCC5
Difference (log2), untreated vs GFP (GFP-14-3-3β; [3]): -0.1105 log2

Difference (log2), PP1 vs untreated [1, 2]: -0.1289 log2
Substance: XRCC6
Difference (log2), untreated vs GFP (GFP-14-3-3β; [3]): -0.01757 log2

Difference (log2), PP1 vs untreated [1, 6]: -2.787 log2
Substance: YAP1
Difference (log2), untreated vs GFP (GFP-14-3-3β; [7]): 8.338 log2

Sensitivity (phosphatase exclusively dephosphorylating the p-site) (PP1c/PP2Ac): PP2Ac
Substance: YAP1 127: 14-3-3 interaction site, window VRAHSSPASLQ

Difference (log2), PP1 vs untreated [1, 10]: -0.8848 log2
Substance: YES1
Difference (log2), untreated vs GFP (GFP-14-3-3β; [11]): -0.5463 log2

Difference (log2), PP1 vs untreated [1, 4]: -0.475 log2
Substance: YWHAB
Difference (log2), untreated vs GFP (GFP-14-3-3β; [5]): 6.723 log2

Difference (log2), PP1 vs untreated [1, 10]: -1.3 log2
Substance: YWHAE
Difference (log2), untreated vs GFP (GFP-14-3-3β; [11]): 6.648 log2

Difference (log2), PP1 vs untreated [1, 10]: -1.2523 log2
Substance: YWHAG
Difference (log2), untreated vs GFP (GFP-14-3-3β; [11]): 8.569 log2

Difference (log2), PP1 vs untreated [1, 10]: -1.354 log2
Substance: YWHAQ
Difference (log2), untreated vs GFP (GFP-14-3-3β; [11]): 7.871 log2

Difference (log2), PP1 vs untreated [1, 10]: -1.298 log2
Substance: YWHAZ
Difference (log2), untreated vs GFP (GFP-14-3-3β; [11]): 6.453 log2

Difference (log2), PP1 vs untreated [1, 2]: -0.1033 log2
Substance: ZC3H4
Difference (log2), untreated vs GFP (GFP-14-3-3β; [3]): 0.7684 log2

From PMC7367873, “Dissecting the sequence determinants for dephosphorylation by the catalytic subunits of phosphatases PP1 and PP2A” (Nature Communications, 2020)
